According to the supplement of paper PMC12463676, “Small-molecule dissolution of stress granules by redox modulation benefits ALS models” (Nature Chemical Biology, 2025):

Columns and labels:
lipoamide = compound: NC(=O)CCCCC1CCSS1 [lipoamide]; assay: thermal stability z-score vs DMSO; higher = more thermally stabilized by treatment; details: HeLa, lipoamide concentration 100 µM
Protocol: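 Cellular thermal proteome profiling in HeLa cells. Cells were treated with 100 µM lipoamide for 1 h, with or without 1 mM arsenate for a further 1 h, then heated to ten temperatures (37-66.3 °C), and soluble protein was quantified by TMT mass spectrometry relative to 0.1% DMSO controls. The thermal stability score (sum of log2 fold changes minus the abundance score) was transformed to a z-score; mean of n = 3 experiments.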

potassium arsenate = compound: O=[As]([O-])(O)O.[K+] [potassium arsenate]; assay: as above; details: HeLa; arsenate concentration 1 mM
Protocol: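 Cellular thermal proteome profiling in HeLa cells treated with 1 mM arsenate for 1 h (DMSO pretreatment), heated to ten temperatures (37-66.3 °C). Soluble protein was quantified by TMT mass spectrometry relative to DMSO controls; the thermal stability score was transformed to a z-score; mean of n = 3 experiments.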

[1] = arsenate co-treatment: 1 mM arsenate 1 h
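Note: each temperature applied for 3 min, abundance score taken as mean log2 fold change at the two lowest temperatures, z-score obtained by mean subtraction and division by SD.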

UniProt Q9NPE2, sequence (Q9NPE2 whole entry): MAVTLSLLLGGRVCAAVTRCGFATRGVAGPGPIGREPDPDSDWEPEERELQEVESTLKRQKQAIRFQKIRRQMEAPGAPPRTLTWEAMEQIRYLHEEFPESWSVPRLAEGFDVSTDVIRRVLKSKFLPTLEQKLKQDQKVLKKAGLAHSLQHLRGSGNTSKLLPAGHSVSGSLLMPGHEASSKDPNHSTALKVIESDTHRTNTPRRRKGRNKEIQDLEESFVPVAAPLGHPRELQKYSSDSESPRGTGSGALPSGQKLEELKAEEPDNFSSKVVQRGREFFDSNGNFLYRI
UniProt Q14566, sequence (Q14566 whole entry): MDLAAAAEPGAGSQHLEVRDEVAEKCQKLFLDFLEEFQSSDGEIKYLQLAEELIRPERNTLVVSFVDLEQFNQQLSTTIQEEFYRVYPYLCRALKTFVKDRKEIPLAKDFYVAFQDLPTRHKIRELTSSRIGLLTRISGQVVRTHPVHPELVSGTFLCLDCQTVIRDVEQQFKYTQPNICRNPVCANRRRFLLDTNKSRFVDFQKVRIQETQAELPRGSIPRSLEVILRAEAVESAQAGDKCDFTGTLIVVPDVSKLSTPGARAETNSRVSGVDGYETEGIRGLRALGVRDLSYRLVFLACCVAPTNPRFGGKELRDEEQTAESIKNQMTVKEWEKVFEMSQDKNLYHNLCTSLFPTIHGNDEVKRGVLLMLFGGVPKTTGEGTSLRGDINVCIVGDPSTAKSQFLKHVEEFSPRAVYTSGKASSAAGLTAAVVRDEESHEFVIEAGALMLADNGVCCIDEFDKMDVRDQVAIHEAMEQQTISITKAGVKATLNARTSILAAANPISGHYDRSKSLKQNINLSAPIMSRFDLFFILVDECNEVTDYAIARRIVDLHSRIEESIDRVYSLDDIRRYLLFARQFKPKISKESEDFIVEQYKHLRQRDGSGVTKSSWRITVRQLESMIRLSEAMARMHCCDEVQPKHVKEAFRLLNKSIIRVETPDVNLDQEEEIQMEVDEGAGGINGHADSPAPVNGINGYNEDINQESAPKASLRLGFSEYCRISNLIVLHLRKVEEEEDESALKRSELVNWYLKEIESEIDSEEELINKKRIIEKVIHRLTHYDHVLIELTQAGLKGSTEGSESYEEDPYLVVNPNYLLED
UniProt Q14254, sequence (Q14254 whole entry): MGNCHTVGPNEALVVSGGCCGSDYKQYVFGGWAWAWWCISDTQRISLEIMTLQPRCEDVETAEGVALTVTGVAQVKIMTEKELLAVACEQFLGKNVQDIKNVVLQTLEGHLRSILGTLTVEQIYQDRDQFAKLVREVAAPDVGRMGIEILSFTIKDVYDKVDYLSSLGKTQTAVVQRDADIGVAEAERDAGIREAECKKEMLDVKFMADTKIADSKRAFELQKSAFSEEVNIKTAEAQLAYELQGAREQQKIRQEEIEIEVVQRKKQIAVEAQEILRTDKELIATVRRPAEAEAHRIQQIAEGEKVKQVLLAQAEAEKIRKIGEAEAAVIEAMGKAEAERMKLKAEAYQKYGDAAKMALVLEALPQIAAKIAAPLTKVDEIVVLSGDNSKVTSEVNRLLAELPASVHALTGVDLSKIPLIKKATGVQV
UniProt Q9NV06, sequence (Q9NV06 whole entry): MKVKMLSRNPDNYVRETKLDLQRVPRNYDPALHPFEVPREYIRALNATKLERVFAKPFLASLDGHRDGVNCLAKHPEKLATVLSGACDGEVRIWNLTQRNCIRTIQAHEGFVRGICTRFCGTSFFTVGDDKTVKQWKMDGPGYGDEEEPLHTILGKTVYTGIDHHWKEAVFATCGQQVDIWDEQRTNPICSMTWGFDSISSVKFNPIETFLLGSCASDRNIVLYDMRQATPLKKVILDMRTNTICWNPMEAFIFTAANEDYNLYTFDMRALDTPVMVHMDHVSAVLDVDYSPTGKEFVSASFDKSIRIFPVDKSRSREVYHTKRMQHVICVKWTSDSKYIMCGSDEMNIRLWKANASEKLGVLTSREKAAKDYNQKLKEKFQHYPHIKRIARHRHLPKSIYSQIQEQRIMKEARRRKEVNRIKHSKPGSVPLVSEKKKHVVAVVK
UniProt Q9Y2X0, sequence (Q9Y2X0 whole entry): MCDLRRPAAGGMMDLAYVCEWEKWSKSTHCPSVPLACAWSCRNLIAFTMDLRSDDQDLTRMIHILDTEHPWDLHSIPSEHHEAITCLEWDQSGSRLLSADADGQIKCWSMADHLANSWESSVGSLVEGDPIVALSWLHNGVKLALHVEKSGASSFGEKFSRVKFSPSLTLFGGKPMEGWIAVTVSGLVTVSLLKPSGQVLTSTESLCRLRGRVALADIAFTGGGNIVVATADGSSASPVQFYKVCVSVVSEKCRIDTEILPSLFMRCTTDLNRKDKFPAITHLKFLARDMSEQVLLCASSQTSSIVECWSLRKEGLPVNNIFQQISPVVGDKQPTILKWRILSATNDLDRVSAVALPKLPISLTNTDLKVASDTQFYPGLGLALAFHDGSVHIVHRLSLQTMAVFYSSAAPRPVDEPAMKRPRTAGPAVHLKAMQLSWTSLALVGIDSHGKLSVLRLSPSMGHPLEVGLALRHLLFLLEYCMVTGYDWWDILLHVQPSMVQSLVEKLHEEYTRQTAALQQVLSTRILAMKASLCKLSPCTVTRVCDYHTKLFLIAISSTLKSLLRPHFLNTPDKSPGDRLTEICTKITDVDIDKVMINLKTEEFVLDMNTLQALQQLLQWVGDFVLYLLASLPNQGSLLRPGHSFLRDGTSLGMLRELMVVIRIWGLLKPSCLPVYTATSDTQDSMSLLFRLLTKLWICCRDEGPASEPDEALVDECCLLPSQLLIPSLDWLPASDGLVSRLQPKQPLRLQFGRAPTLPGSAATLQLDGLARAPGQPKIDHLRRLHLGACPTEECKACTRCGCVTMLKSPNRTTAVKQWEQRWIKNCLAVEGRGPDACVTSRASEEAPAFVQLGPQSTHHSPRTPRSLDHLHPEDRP
UniProt Q15648, sequence (Q15648 whole entry): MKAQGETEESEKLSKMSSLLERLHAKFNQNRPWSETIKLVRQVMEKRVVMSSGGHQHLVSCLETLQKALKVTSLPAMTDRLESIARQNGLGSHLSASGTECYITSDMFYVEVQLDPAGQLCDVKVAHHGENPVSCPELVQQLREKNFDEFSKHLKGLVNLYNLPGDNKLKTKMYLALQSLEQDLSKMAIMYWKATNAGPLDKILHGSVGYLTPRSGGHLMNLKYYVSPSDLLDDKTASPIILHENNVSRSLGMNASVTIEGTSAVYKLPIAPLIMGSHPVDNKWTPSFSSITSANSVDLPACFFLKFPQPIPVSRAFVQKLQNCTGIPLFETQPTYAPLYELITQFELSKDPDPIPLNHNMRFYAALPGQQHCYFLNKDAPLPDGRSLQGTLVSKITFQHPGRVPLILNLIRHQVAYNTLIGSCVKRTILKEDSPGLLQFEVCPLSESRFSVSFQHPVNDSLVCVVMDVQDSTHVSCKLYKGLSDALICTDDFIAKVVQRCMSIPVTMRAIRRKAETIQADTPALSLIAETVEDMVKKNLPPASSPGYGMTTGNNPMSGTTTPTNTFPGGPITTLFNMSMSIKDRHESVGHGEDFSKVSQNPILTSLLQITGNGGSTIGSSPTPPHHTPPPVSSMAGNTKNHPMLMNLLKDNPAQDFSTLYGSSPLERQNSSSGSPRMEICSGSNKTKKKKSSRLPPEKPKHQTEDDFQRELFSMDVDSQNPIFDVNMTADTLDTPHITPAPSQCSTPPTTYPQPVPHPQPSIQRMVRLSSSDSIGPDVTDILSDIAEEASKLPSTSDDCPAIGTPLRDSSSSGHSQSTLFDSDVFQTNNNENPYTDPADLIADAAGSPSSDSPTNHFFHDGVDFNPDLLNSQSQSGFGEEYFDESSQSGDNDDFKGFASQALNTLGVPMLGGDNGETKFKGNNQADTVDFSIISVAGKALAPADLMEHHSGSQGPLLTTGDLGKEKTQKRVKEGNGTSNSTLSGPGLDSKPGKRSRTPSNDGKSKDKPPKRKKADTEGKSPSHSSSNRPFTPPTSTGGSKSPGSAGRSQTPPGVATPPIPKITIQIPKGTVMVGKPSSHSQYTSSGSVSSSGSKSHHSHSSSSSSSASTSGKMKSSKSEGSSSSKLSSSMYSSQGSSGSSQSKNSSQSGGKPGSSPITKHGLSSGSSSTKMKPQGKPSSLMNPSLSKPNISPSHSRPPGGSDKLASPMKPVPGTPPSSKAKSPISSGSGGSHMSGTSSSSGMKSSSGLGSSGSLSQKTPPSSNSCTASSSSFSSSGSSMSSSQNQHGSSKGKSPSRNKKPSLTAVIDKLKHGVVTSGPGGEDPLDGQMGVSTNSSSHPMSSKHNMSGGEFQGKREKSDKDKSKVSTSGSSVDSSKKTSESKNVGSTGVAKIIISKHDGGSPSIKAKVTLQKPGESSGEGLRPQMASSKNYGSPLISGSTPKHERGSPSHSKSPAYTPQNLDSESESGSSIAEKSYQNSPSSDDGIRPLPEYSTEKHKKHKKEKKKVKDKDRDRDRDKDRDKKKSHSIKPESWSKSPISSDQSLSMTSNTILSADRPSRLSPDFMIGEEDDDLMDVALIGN
UniProt Q9UMS0, sequence (Q9UMS0 whole entry): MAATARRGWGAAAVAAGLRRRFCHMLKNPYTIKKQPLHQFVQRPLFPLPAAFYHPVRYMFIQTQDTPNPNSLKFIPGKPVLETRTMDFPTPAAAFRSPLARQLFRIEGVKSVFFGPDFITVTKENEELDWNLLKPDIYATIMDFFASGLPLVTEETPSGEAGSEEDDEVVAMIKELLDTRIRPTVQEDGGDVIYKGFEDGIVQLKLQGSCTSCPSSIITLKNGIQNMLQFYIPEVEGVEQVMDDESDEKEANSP
UniProt Q9Y315, sequence (Q9Y315 whole entry): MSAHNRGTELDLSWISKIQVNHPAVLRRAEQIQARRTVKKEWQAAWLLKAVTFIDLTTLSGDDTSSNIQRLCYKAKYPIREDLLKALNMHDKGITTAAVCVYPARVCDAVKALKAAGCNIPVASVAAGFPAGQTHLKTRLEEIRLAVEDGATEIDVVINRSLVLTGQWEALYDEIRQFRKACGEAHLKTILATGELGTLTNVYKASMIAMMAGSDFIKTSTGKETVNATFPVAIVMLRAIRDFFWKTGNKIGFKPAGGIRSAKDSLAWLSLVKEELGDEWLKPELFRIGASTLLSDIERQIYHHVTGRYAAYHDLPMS

| Target | thermal stability z-score (lipoamide; [1]) | thermal stability z-score (lipoamide; arsenate co-treatment: none) | thermal stability z-score (potassium arsenate) |
| --- | --- | --- | --- |
| THG1L (UniProt Q9NWX6) | 0.578 | 0.85 | 0.463 |
| TMEM11 (UniProt P17152) | -0.251 | -0.145 | -1.1 |
| SP1 (UniProt P08047) | -0.0425 | -0.199 | 0.789 |
| LTA4H (UniProt P09960) | 0.357 | 0.32 | -0.164 |
| JPH1 (UniProt Q9HDC5) | 0.0376 | 0.0934 | -0.105 |
| PPP2CB (UniProt P62714) | 0.564 | 0.167 | -0.474 |
| SENP6 (UniProt Q9GZR1) | -0.0511 | -0.0676 | -0.18 |
| COQ6 (UniProt Q9Y2Z9) | 1.2 | -0.131 | -2.7 |
| DAP (UniProt P51397) | 1.03 | 0.89 | -0.0556 |
| TYRO3 (UniProt Q06418) | 0.189 | -0.0901 | -0.136 |
| CASP7 (UniProt P55210) | 0.596 | 0.147 | -0.753 |
| SYVN1 (UniProt Q86TM6) | -2 | -2.05 | -0.421 |
| ACSL1 (UniProt P33121) | 0.922 | 0.82 | 0.682 |
| CRABP2 (UniProt P29373) | 0.359 | 1.24 | 0.378 |
| MIOS (UniProt Q9NXC5) | 0.0112 | 0.085 | -0.469 |
| MECP2 (UniProt P51608) | -0.157 | -0.207 | -0.147 |
| NAT6 (UniProt Q93015) | 0.0786 | -0.349 | -0.338 |
| MRPL11 (UniProt Q9Y3B7) | -0.211 | 0.169 | 0.0228 |
| CIRBP (UniProt Q14011) | 0.435 | -0.192 | -0.194 |
| C18ORF25 (UniProt Q96B23) | -0.688 | -0.189 | 0.363 |
| BLOC1S3 (UniProt Q6QNY0) | 0.923 | 0.625 | 0.0424 |
| CMSS1 (UniProt Q9BQ75) | 0.27 | 0.0303 | -2.12 |
| VRK1 (UniProt Q99986) | 0.263 | 0.423 | -0.267 |
| CTSZ (UniProt Q9UBR2) | -1.02 | -0.748 | 0.529 |

| Target | thermal stability z-score (lipoamide; [1]) | thermal stability z-score (lipoamide; arsenate co-treatment: none) | thermal stability z-score (potassium arsenate) |
| --- | --- | --- | --- |
| NGRN (UniProt Q9NPE2) | 0.637 | 0.0666 | -0.378 |
| ABCE1 (UniProt P61221) | 0.0869 | 0.0991 | -0.471 |
| CLTC (UniProt Q00610) | 0.447 | 0.409 | -0.263 |
| DOCK11 (UniProt Q5JSL3) | -0.016 | 0.0791 | -0.755 |
| TSC22D4 (UniProt Q9Y3Q8) | -1.89 | -0.035 | -0.0991 |
| CHD3 (UniProt Q12873) | 0.00382 | -0.131 | -0.306 |
| BANF1 (UniProt O75531) | 0.324 | -0.358 | -2.36 |
| FUS (UniProt P35637) | 0.844 | 1.27 | 0.635 |
| MOV10 (UniProt Q9HCE1) | -0.0627 | 0.31 | -0.16 |
| HAT1 (UniProt O14929) | 0.352 | 0.375 | 0.265 |
| SLC16A3 (UniProt O15427) | 0.645 | 0.712 | 0.351 |
| EWSR1 (UniProt Q01844) | 0.0495 | 0.235 | -0.604 |
| VWA9 (UniProt Q96SY0) | 0.159 | 0.404 | -0.114 |
| PTBP2 (UniProt Q9UKA9) | -0.138 | -0.14 | -0.161 |
| SLC52A2 (UniProt Q9HAB3) | 0.194 | 0.164 | -0.17 |
| TRAF6 (UniProt Q9Y4K3) | -0.0771 | -0.0851 | -0.00689 |
| MTX3 (UniProt Q5HYI7) | 0.929 | 0.179 | -0.0757 |
| DECR2 (UniProt Q9NUI1) | 1.26 | 1.15 | 1.27 |
| SETD3 (UniProt Q86TU7) | -0.479 | -0.251 | 0.0633 |
| LGALSL (UniProt Q3ZCW2) | 0.209 | 0.257 | 0.19 |
| DCAF13 (UniProt Q9NV06) | -0.43 | -0.325 | 1.25 |
| CENPH (UniProt Q9H3R5) | -0.976 | 0.153 | 0.184 |
| MED1 (UniProt Q15648) | 0.948 | 0.662 | 0.125 |
| NFU1 (UniProt Q9UMS0) | 0.559 | 0.402 | 0.227 |

| Target | thermal stability z-score (lipoamide; [1]) | thermal stability z-score (lipoamide; arsenate co-treatment: none) | thermal stability z-score (potassium arsenate) |
| --- | --- | --- | --- |
| MCM6 (UniProt Q14566) | -0.81 | -0.253 | -0.919 |
| MED16 (UniProt Q9Y2X0) | -0.0673 | 0.0989 | -0.0825 |
| CDAN1 (UniProt Q8IWY9) | -0.217 | -0.235 | -0.113 |
| MYL6B (UniProt P14649) | -0.283 | 0.233 | -1.03 |
| MRGBP (UniProt Q9NV56) | 0.386 | -0.212 | -0.45 |
| KEAP1 (UniProt Q14145) | 2.32 | 2.11 | 4.65 |
| DTL (UniProt Q9NZJ0) | -0.0028 | -0.0193 | -0.408 |
| E2F4 (UniProt Q16254) | 0.295 | 0.54 | 0.373 |
| RPL9 (UniProt P32969) | 0.762 | 0.659 | -0.232 |
| TAGLN (UniProt Q01995) | -0.0305 | 1.13 | -1.55 |
| DEGS1 (UniProt O15121) | -0.756 | -1.25 | 0.212 |
| MRPS27 (UniProt Q92552) | -0.204 | -0.193 | 0.189 |
| VPS26B (UniProt Q4G0F5) | 0.123 | -0.118 | 0.0841 |
| PARS2 (UniProt Q7L3T8) | -0.928 | -0.492 | -0.314 |
| PIK3R2 (UniProt O00459) | -0.263 | 0.416 | -0.17 |
| DERA (UniProt Q9Y315) | 0.0875 | -0.0376 | -0.0631 |
| PLS1 (UniProt Q14651) | 0.258 | 0.506 | -0.0678 |
| KNTC1 (UniProt P50748) | -0.59 | -0.253 | 0.572 |
| AKR7A2 (UniProt O43488) | 0.2 | -0.0291 | 0.581 |
| NBN (UniProt O60934) | 0.219 | 0.275 | -0.469 |
| VPS4B (UniProt O75351) | 0.854 | 0.498 | 0.314 |
| NPC1 (UniProt O15118) | -0.389 | -0.182 | 0.0121 |
| FLOT2 (UniProt Q14254) | 0.746 | 0.534 | -1.32 |
